Source: patent publication US10183944B2 (Asana Biosciences, LLC, priority 2011, dated 2019)
Where a name gives a salt, the structure may show the parent alone. Read-outs that look alike come from different tables or passages of the source.

Legend:
[1] = tested on: RBL2H3 cells; experiment: Degranulation assay: β-hexosaminidase release during immune complex mediated degranulation; assay type: cell-based, rat; settings: Rattus norvegicus, RBL-2H3; for inhibition at 1 µM: read-out: Degranulation % inhibition at 1 μM; for EC50: read-out: Degranulation EC50
How it was run: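 RBL2H3 cells sensitized overnight (or 24 h) with anti-DNP rat IgE, pretreated 15 min with compounds in 0.5% DMSO, then challenged with DNP-BSA for 45–60 min. β-Hexosaminidase in supernatant read fluorometrically (Ex 355/Em 460 nm) with β-NAG substrate, 30 min RT; % release/inhibition calculated.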

[2] = target: Syk (356-635 amino acids) catalytic domain (Homo sapiens (Human), UniProt P43405); experiment: Inhibition of enzymatic Syk kinase activity (radiometric); assay type: biochemical; settings: read-out: IC50 Syk
How it was run: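 Human Syk (356-635) kinase domain (0.035–7.5 ng/reaction) preincubated with compound 30 minutes at room temperature, then reacted with pG4T substrate, 100 μM ATP (stock) and γ-32P-ATP for 10 minutes at 30° C. Reaction stopped with HCl/ATP, spotted on P81 paper, washed and counted by scintillation. Percent inhibition versus no-compound counts.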

[3] = target: JAK2 (Homo sapiens (Human), UniProt O60674); experiment: Inhibition of enzymatic JAK2 kinase activity (TR-FRET); assay type: biochemical; settings: read-out: IC50 JAK
Sequence of JAK2 (O60674 808-1132): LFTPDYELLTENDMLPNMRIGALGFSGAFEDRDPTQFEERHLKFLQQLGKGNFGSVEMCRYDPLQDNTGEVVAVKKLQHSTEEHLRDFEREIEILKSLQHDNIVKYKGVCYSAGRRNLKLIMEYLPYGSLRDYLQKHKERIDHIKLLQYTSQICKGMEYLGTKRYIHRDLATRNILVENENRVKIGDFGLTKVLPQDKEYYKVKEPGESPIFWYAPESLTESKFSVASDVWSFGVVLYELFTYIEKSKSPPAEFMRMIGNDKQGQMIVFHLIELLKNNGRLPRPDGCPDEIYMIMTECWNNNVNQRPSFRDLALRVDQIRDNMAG
How it was run: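 Enzyme preincubated with compound 30 min at RT, then Ulight-poly-GT substrate and ATP added for 60 min at RT. EDTA stop, Eu-antiphosphotyrosine antibody; TR-FRET ratio 665/615 nm (ex 340 nm), blank-corrected; % inhibition versus positive control.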

[4] = Assay Protocol B (96 well format)
[5] = Assay Protocol A (24 well format)

| SMILES | inhibition at 1 µM [1, 4] | EC50 [1, 4] | IC50 [2] | IC50 [3] | inhibition at 1 µM [1, 5] |
| --- | --- | --- | --- | --- | --- |
| O=c1[nH]ncc2nc(N3CCCCCC3)nc(Nc3ccc(CCCN4CCC(O)CC4)cc3)c12 [Example 179, 2-(azepan-1-yl)-4-((4-(3-(4-hydroxypiperidin-1-yl)propyl)phenyl)amino)pyrimido[4,5-d]pyridazin-5(6H)-one] | 45% | 9 nM | < 10 nM | < 10 nM |  |
| CCN1CCN(Cc2ccc(Nc3nc(-c4ccccc4)nc4cn[nH]c(=O)c34)cc2)CC1 [Example 6, 4-(4-((4-ethylpiperazin-1-yl)methyl)phenylamino)-2-phenylpyrimido[4,5-d]pyridazin-5(6H)-one] |  |  | < 50 nM | < 50 nM | 50% |
| COc1cccc(-c2nc(Nc3ccc(N4CCC5(CC4)CC5C(=O)O)cc3)c3c(=O)[nH]ncc3n2)c1 (stereo not shown) [Example 47, 6-(4-((2-(3-methoxyphenyl)-5-oxo-5,6-dihydropyrimido[4,5-d]pyridazin-4-yl)amino)phenyl)-6-azaspiro[2.5]octane-1-carboxylic acid] | 100% | 132 nM | < 100 nM | < 100 nM |  |
| CCN1CCN(c2ccc(Nc3nc(N4CCCCCC4)nc4cn[nH]c(=O)c34)cc2)CC1 [Example 180, 2-(azepan-1-yl)-4-((4-(4-ethylpiperazin-1-yl)phenyl)amino)pyrimido[4,5-d]pyridazin-5(6H)-one] | 70% | 3 nM | < 10 nM | < 10 nM |  |
| O=C(c1ccc(Nc2nc(N3CCCCCC3)nc3cn[nH]c(=O)c23)cc1)N1CCNCC1 [Example 104, 2-(azepan-1-yl)-4-((4-(piperazine-1-carbonyl)phenyl)amino)pyrimido[4,5-d]pyridazin-5(6H)-one hydrochloride] | 100% | 110 nM | < 50 nM | < 10 nM |  |
| O=C(O)CCc1ccc(Nc2nc(N3CCCCCC3)nc3cn[nH]c(=O)c23)cc1 [Example 304, 3-(4-((2-(azepan-1-yl)-5-oxo-5,6-dihydropyrimido[4,5-d]pyridazin-4-yl)amino)phenyl)propanoic acid] | 70% | 55 nM | < 10 nM | < 10 nM |  |
| CC1(O)CCN(CCc2ccc(Nc3nc(N4CCCCCC4)nc4cn[nH]c(=O)c34)cc2)CC1 [Example 210, 2-(azepan-1-yl)-4-((4-(2-(4-hydroxy-4-methylpiperidin-1-yl)ethyl)phenyl)amino) pyrimido[4,5-d]pyridazin-5(6H)-one] | 79% | 22 nM | < 50 nM | < 10 nM |  |
| CCOc1nc(Nc2ccc(CN3CCNCC3)cc2)c2c(=O)[nH]ncc2n1 [Example 50, 2-ethoxy-4-((4-(piperazin-1-ylmethyl)phenyl)amino)pyrimido[4,5-d]pyridazin-5(6H)-one hydrochloride] | 49% |  | < 10 nM | > 100 nM |  |
| O=c1[nH]ncc2nc(N3CCCCCC3)nc(Nc3ccc(CN4CCNCC4)cc3)c12 [Example 52, 2-(azepan-1-yl)-4-((4-(piperazin-1-ylmethyl)phenyl)amino)pyrimido[4,5-d]pyridazin-5(6H)-one hydrochloride] | 100% | 1 nM | < 10 nM | < 10 nM |  |
| O=c1[nH]ncc2nc(N3CCCCCC3)nc(Nc3ccc(OCCN4CCNCC4)cc3)c12 [Example 107, 2-(azepan-1-yl)-4-((4-(2-(piperazin-1-yl)ethoxy)phenyl)amino)pyrimido[4,5-d]pyridazin-5(6H)-one] | 91% | 94 nM | < 10 nM | < 50 nM |  |
| N#CCC1CCN(c2nc(Nc3ccc(N4CCCN(CCO)CC4)cc3)c3c(=O)[nH]ncc3n2)CC1 [Example 264, 2-(1-(4-((4-(4-(2-hydroxyethyl)-1,4-diazepan-1-yl)phenyl)amino)-5-oxo-5,6-dihydropyrimido[4,5-d]pyridazin-2-yl)piperidin-4-yl)acetonitrile] | 75% | 54 nM | < 10 nM | < 10 nM |  |
| O=c1[nH]ncc2nc(-c3ccccc3)nc(Nc3ccc(N4CCOCC4)cc3)c12 [Example 1, 4-(4-morpholinophenylamino)-2-phenylpyrimido[5,4-d]pyridazin-5(6H)-one] |  |  | < 50 nM | < 50 nM | 85% |
| CC(C)(C(=O)O)N1CCN(c2ccc(Nc3nc(N4CCC(CC#N)CC4)nc4cn[nH]c(=O)c34)cc2)CC1 [Example 213, 2-(4-(4-((2-(4-(cyanomethyl)piperidin-1-yl)-5-oxo-5,6-dihydropyrimido[4,5-d]pyridazin-4-yl)amino)phenyl)piperazin-1-yl)-2-methylpropanoic acid] | 78% | 33 nM | < 10 nM | < 50 nM |  |
| O=c1[nH]ncc2nc(N3CCCCCC3)nc(Nc3ccc(CCN4CCC(O)CC4)cc3)c12 [Example 201, 2-(azepan-1-yl)-4-((4-(2-(4-hydroxypiperidin-1-yl)ethyl)phenyl)amino)pyrimido[4,5-d]pyridazin-5(6H)-one] | 88% | 31 nM | < 10 nM | < 10 nM |  |
| N#CCC1CCN(c2nc(Nc3ccc(N4CCN(CCF)CC4)cc3)c3c(=O)[nH]ncc3n2)CC1 [Example 276, 2-(1-(4-((4-(4-(2-fluoroethyl)piperazin-1-yl)phenyl)amino)-5-oxo-5,6-dihydropyrimido[4,5-d]pyridazin-2-yl)piperidin-4-yl)acetonitrile] | 91% | 24 nM | < 10 nM | < 50 nM |  |
| N#CCC1CCN(c2nc(Nc3ccc(N4CCN(CC(O)CO)CC4)cc3)c3c(=O)[nH]ncc3n2)CC1 (stereo not shown) [Example 274, 2-(1-(4-((4-(4-(2,3-dihydroxypropyl)piperazin-1-yl)phenyl)amino)-5-oxo-5,6-dihydropyrimido[4,5-d]pyridazin-2-yl)piperidin-4-yl)acetonitrile] | 59% | 81 nM | < 10 nM | < 10 nM |  |
| N#CCC(=O)N1CCN(c2ccc(Nc3nc(N4CCCCCC4)nc4cn[nH]c(=O)c34)cc2)CC1 [Example 215, 3-(4-(4-((2-(azepan-1-yl)-5-oxo-5,6-dihydropyrimido[4,5-d]pyridazin-4-yl)amino)phenyl)piperazin-1-yl)-3-oxopropanenitrile] | 96% | 12 nM | < 10 nM | < 10 nM |  |
| O=c1[nH]ncc2nc(N3CCCCC3)nc(Nc3ccc(CN4CCNCC4)cc3)c12 [Example 30, 4-(4-(piperazin-1-ylmethyl)phenylamino)-2-(piperidin-1-yl)pyrimido[4,5-d]pyridazin-5(6H)-one hydrochloride] | 99% |  | < 50 nM | < 50 nM |  |
| O=C(O)C1CCN(Cc2ccc(Nc3nc(-c4ccccc4)nc4cn[nH]c(=O)c34)cc2)CC1 [Example 35, 1-(4-(5-oxo-2-phenyl-5,6-dihydropyrimido[4,5-d]pyridazin-4-ylamino)benzyl)piperidine-4-carboxylic acid] | 19% |  | < 50 nM | < 50 nM |  |
| CC1CN(c2nc(Nc3ccc(N4CCC(CC(=O)O)CC4)cc3)c3c(=O)[nH]ncc3n2)CC(C)O1 (stereo not shown) [Example 121, 2-(1-(4-((2-(2,6-dimethylmorpholino)-5-oxo-5,6-dihydropyrimido[4,5-d]pyridazin-4-yl)amino)phenyl)piperidin-4-yl)acetic acid] | 98% | 156 nM | < 50 nM | < 50 nM |  |
| N#CCC1CCN(c2nc(Nc3ccc(N4CCC(CC(=O)O)CC4)cc3)c3c(=O)[nH]ncc3n2)CC1 [Example 71, 2-(1-(4-((2-(4-(cyanomethyl)piperidin-1-yl)-5-oxo-5,6-dihydropyrimido[4,5-d]pyridazin-4-yl)amino)phenyl)piperidin-4-yl)acetic acid] | 65% | 1020 nM | > 100 nM | > 100 nM |  |
| O=C(O)CCN1CCN(c2ccc(Nc3nc(N4CCCCCC4)nc4cn[nH]c(=O)c34)cc2)CC1 [Example 208, 3-(4-(4-((2-(azepan-1-yl)-5-oxo-5,6-dihydropyrimido[4,5-d]pyridazin-4-yl)amino)phenyl)piperazin-1-yl) propanoic acid] | 21% | 14 nM | < 10 nM | < 10 nM |  |
| O=c1[nH]ncc2nc(N3CCCCCC3)nc(Nc3ccc(OCCN4CCC(O)CC4)cc3)c12 [Example 172, 2-(azepan-1-yl)-4-((4-(2-(4-hydroxypiperidin-1-yl)ethoxy)phenyl)amino)pyrimido[4,5-d]pyridazin-5(6H)-one] | 50% | 101 nM | < 50 nM | < 10 nM |  |
| CC(C)(CO)N1CCCN(c2ccc(Nc3nc(N4CCC(CC#N)CC4)nc4cn[nH]c(=O)c34)cc2)CC1 [Example 297, 2-(1-(4-((4-(4-(1-hydroxy-2-methylpropan-2-yl)-1,4-diazepan-1-yl)phenyl)amino)-5-oxo-5,6-dihydropyrimido[4,5-d]pyridazin-2-yl)piperidin-4-yl)acetonitrile] | 99% | 18 nM | < 10 nM | < 50 nM |  |
